The source of these data is US20090162351A1, “Transdiscal administration of inhibitors of p38 MAP kinase” (DePuy Spine, Inc., priority 2007, published 2009).

Where two headings read alike, the source gives them in different places.

In general, IC50 refers to the concentration needed to halve the response being measured. The inhibition is the share of the control response that was lost under treatment. A word on the Kd: it is the constant that tells how readily two partners part at equilibrium.

The subject of one data set is JNK. Kind of data set: JNK inhibition. To be noted: read-out: inhibitor of JNK, IC50. The class given is biochemical.
For data set [1], the system named is NO production in injured bovine cartilage explants. The data set can be described thus: Drop tower model: NO production in injured cartilage explants. It counts as cell-based. To be noted: for effect on NO production (in words): drop tower model, cocktail of cytokines; for inhibition at 10 µM: Bos taurus, injured cartilage explants. Here is the method:
(§1) In the second method, the explants were cultured at 37° C., 5% CO2 either in stimulated or non-stimulated conditioned medium as described above or in defined medium containing DMEM supplemented with 1% FCS, 1× insulin-transferrin-sodium selenite media supplement and Antibiotics-Antimycotics in the presence or absence of a cocktail of cytokines containing 10 ng/ml of IL-1β, 100 ng/ml of TNFα and 5 ng/ml of IFN-γ. The compounds were solubilized in H2O, Ethanol or DMSO (10^−2 M) according to suppliers' instructions and further diluted with either conditioned medium stimulated with or without LPS to the required concentrations. DMSO concentrations in the culture media never exceeded 1%. This concentration of DMSO has no effect on cartilage proteoglycan metabolism in response to cytokines. The injured and noninjured cartilage explants were treated with compound-containing medium for three to five days. The specimens were first treated with compounds at desired concentrations at 37° C. for one hour and then incubated for three to five days in the absence or presence of the cocktail of cytokines. At the end of the incubation, media and cartilage samples were harvested and frozen for further analysis.
Nitrate/Nitrite was measured using the Griess reaction (Green L. C. et al., “Analysis of Nitrate, Nitrite, and [15N]nitrate in Biological Fluids,” Anal. Biochem. 126: 131-138 (1982)) with a Nitrate/Nitrite Colorimetric Assay Kit (Cayman Chemicals), as described in Example III above.

The nature of the next data set: Monkey PK. To be noted: in vivo, female monkey.
Another data set can be described thus: Rat PK. It counts as in vivo.
A further data set has as its system 6 CYP450. Kind of data set: Inhibition of 6 CYP450. It counts as in vitro ADME.
The test system of data set [2] is PGE2 synthesis in injured bovine cartilage explants. The data set can be described thus: Drop tower model: PGE2 synthesis in injured cartilage explants. The class given is cell-based. To be noted: for effect on PGE2 synthesis (in words): drop tower model, cocktail of cytokines; for inhibition at 1 µM / inhibition at 10 µM: Bos taurus, injured cartilage explants. Here is the method: as §1
PGE2 was measured with STAT-Prostaglandin E2 EIA ELISA kit (Cayman Biochemicals), as described in Example III above. The antibody-PGE2 complex binds to a goat polyclonal anti-mouse IgG that has been previously attached to the well. After washing to remove any unbound reagents, para-nitrophenyl phosphate (pNPP) was added to the well. The product of this enzymatic reaction absorbs strongly at 412 nm. Because of the large range in response to IL-1β and other cytokines, PGE2 values were converted to log scale prior to doing t-tests.

The target of the next data set is CYP2C9 (Homo sapiens, UniProt P11712). The data set can be described thus: CYP2C9 inhibition. It counts as in vitro ADME.
Sequence of CYP2C9 (P11712 whole entry): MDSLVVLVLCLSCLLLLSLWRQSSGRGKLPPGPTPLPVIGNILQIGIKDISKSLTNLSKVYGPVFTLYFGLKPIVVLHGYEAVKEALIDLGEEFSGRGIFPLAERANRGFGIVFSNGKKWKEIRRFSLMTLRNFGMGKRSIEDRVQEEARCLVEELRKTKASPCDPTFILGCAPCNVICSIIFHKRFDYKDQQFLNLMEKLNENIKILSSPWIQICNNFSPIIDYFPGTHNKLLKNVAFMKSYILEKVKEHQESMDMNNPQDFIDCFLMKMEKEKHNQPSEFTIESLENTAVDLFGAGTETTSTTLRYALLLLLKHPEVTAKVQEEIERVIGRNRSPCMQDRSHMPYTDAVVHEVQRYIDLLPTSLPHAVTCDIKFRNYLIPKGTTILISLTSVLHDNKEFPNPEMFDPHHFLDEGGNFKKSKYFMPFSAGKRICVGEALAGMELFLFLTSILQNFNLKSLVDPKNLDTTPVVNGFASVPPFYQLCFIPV
In a further data set the target is p38a MAP kinase (Homo sapiens, UniProt Q16539). The data set can be described thus: Binding to p38a MAP kinase. To be noted: read-out: binds p38a MAP kinase, Kd.
Sequence of p38a MAP kinase (Q16539 whole entry): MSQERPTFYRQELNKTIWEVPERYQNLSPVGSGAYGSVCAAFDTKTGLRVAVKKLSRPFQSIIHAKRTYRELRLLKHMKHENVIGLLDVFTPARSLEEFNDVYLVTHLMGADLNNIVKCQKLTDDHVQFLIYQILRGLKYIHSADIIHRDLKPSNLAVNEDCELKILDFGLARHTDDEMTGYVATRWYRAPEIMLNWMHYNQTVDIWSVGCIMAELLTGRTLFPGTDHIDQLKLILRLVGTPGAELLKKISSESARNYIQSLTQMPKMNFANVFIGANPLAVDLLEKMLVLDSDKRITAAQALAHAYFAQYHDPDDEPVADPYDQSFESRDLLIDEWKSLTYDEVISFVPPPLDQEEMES
A further data set deals with JNK2 (Homo sapiens, UniProt P45984). The data set can be described thus: JNK2 inhibition. To be noted: read-out: inhibitor of JNK2, IC50. It counts as biochemical.
Sequence of JNK2 (P45984 whole entry, species assumed): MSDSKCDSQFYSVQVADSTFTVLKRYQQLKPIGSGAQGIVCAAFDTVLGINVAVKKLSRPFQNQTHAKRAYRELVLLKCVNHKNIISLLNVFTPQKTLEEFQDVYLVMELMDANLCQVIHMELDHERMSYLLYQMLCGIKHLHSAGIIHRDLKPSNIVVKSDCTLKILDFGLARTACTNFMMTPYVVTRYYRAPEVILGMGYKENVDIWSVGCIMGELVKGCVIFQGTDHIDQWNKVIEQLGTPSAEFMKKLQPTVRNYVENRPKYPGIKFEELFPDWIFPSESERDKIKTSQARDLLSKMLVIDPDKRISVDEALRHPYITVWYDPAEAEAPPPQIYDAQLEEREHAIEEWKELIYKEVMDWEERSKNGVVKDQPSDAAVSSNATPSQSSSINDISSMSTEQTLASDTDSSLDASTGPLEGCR
Data set [3] relates to annulus fibrosus and nucleus pulposus cells from bovine caudal discs treated with IL-1β. The data set can be described thus: 3D in vitro disc cell model: GAG (DMMB). The class given is cell-based. An excerpt: (§2) Three-dimensional in vitro annulus fibrosis (AF) and nucleus pulposus (NP) models were established to investigate proteoglycan modulation and changes in gene expression in response to inflammatory cytokines such as interleukin-1 (e.g., IL-1β) and potential therapeutic agents such as growth and differentiation factor (GDF-5), and p38 MAP kinase inhibitors. AF and NP cells from bovine caudal discs were isolated by enzymatic digestion and seeded (2×10^6 cells/cm^2) onto Millipore CM filters coated with Collagen Type II and cultured in DMEM/20% heat-inactivated FBS, 100 ug/ml ascorbic acid and 5 ng/ml TGFβ1. […] Results were evaluated by histology (Tol. Blue staining was used to observe matrix production). Dimethylmethylene blue (DMMB) was used to detect sulphated glycosaminoglycans in a GAG/DNA assay. Taqman analysis was performed on aggrecans (AGG), collagen type 1 (col-1), collagen type 2 (col-2), and MMP 3, MMP 9 and MMP 13. In FIGS. 19A-C and 20A-C, annulus fibrosus and nucleus pulposus cells from bovine caudal discs were isolated by enzymatic digestion and seeded (2×10^6 cells/cm2) onto Millipore CM filters coated with Collagen Type II and cultured in DMEM/20% heat-inactivated FBS/100 ug/ml ascorbic acid and 5 ng/ml TGF-β1.

The subject of data set [4] is LPS-induced TNF in human peripheral blood mononuclear cells (hPBMC). Kind of data set: LPS-induced TNF in hPBMC. To be noted: read-out: inhibitor of LPS-induced TNF hPBMC, IC50. The class given is cell-based.
Data set [5] relates to aggrecan and collagen type 2 mRNA in bovine AF and NP cells. Kind of data set: 3D in vitro disc cell model: Taqman gene expression. It counts as cell-based. To be noted: 10 ng/ml IL-1β; inhibitor 1 μM, rhGDF-5 200 ng/ml.
Description: as §2
A general note: Real-time PCR tracks product formation cycle by cycle.

Data set [6] deals with LPS-induced IL-1 in hPBMC. Kind of data set: LPS-induced IL-1 in hPBMC. It counts as cell-based, human. To be noted: read-out: inhibitor of LPS-induced IL-1 in hPBMC, IC50.
Data set [7] concerns the target inactivated p38 MAP kinase (Homo sapiens, UniProt Q16539). The data set can be described thus: Binding to inactivated p38 MAP kinase. To be noted: read-out: binds to inactivated p38 MAP kinase, Kd.

Sequence of inactivated p38 MAP kinase (Q16539 whole entry): as the sequence (Q16539 whole entry) above

As for `C[C@H](Nc1nccc(-c2c(-c3ccc(F)cc3)nc3nc(N)ccn23)n1)c1ccccc1` [JNJ 7583979 (RWJ 351958)], the IC50 in the data set with JNK is 12 nM.

`C[C@@H]1CN(Cc2ccc(F)cc2)[C@@H](C)CN1C(=O)c1cc2c(C(=O)C(=O)N(C)C)cn(C)c2cc1Cl` [SCIO-469 (SD 469)]: the “effect on NO production (in words)” value in data set [1] is given as “inhibited”. The bioavailability in “Monkey PK” (read-out: Monkey (F) PK, F %) turned out to be 12%; in “Rat PK” (in vivo, male rat, read-out: Rat (M) PK, F %) it was 15%. The half-life in the data set “Monkey PK” (read-out: Monkey (F) PK, t1/2 (converted)) is 1.3 h; in “Rat PK” (in vivo, female rat, read-out: Rat (F) PK, t1/2 (converted)), 1 h; in “Rat PK” (in vivo, male rat, read-out: Rat (M) PK, t1/2 (converted)) it was 0.5 h. Also, the half-maximal inhibitory concentration (IC50) is > 1000 nM in the data set with 6 CYP450 and > 1000 nM in the data set with 6 CYP450 (human, Table 2). Besides, in [2], the “effect on PGE2 synthesis (in words)” value was “inhibited”.

Consider `COc1ccc(-n2nc(CCC(=O)N(C)O)cc2-c2ccc(Cl)cc2)cc1` [Tepoxalin, reference compound], for which, in [1], the inhibition at 10 µM worked out at 100%. In data set [2], this molecule had an inhibition at 1 µM of 77% and an inhibition at 10 µM of 90%.

Turning to `C[C@@H]1CN(Cc2ccc(F)cc2)[C@@H](C)CN1C(=O)c1cc2cc(C(=O)C(=O)N(C)C)[nH]c2cc1Cl` [SCIO-282 (SD 282)], 500 nM corresponded to half-maximal inhibition against CYP2C9 (IC50). In addition, the “effect on NO production (in words)” value in [1] is recorded as “dose-dependently inhibited”. For the same molecule, the “Rat (F) PK, F %” value in “Rat PK” (female rat) came to 46%. The “effect on PGE2 synthesis (in words)” value in data set [2] is listed as “dose-dependently inhibited”.

On to `OCCC#Cc1nc(-c2ccc(F)cc2)c(-c2ccncc2)n1CCCc1ccccc1` [JNJ 3026582 (RWJ 67657), 4-[4-(4-fluorophenyl)-1-(3-phenylpropyl)-5-(4-pyridinyl)-1H-imidazol-2-yl]-3-butyn-1-ol], for which the Kd at p38a MAP kinase was determined as 9 nM. In addition, in [1], the inhibition at 10 µM amounted to 66% and the “effect on NO production (in words)” value is given as “dose-dependently inhibited”. Further, the 50% inhibitory concentration (IC50) at JNK2 was found to be 80 nM. For the same molecule, in data set [2], the inhibition at 1 µM worked out at 33%, at 10 µM the inhibition was 90% and the “effect on PGE2 synthesis (in words)” value is recorded as “dose-dependently inhibited”. Besides, the “amount of GAG in the tissue (in words)” value in data set [3] (10 ng/ml IL-1β, inhibitor 1 μM, rhGDF-5 200 ng/ml) was “restored”. Besides, the “GAG release (in words)” value in data set [3] (Example V, IL-1β-treated disc cells) was “prevented GAG release in a dose dependent manner”. The IC50 in data set [4] (Homo sapiens, PBMC) worked out at 4 nM. In data set [5], the “gene expression of Agg and Col 2 (in words)” value is on record as “restored”.

Take `CC(=O)N1CCN(c2c(-c3ccncc3)c(-c3ccc(F)cc3)c(C#N)n2C)CC1` [JNJ 17089540 (RWJ 669307)]: the half-maximal inhibitory concentration (IC50) was 250 nM in data set [6] and 220 nM in data set [4]. Also, in [1], the “effect on NO production (in words)” value is “dose-dependently inhibited”. Moreover, the Kd in data set [7] amounted to 100 nM. In addition, the “effect on PGE2 synthesis (in words)” value in [2] was “dose-dependently inhibited”.
